Reference: ChEMBL document CHEMBL3734723, “Synthesis and anticancer activity of 6-heteroarylcoumarins” (2015)

How the values were obtained:
Format in all cases: functional
[1] = Growth inhibition of human RPMI8226 cells incubated for 48 hrs by sulforhodamine B assay; details: RPMI-8226, 48 h
[2] = Growth inhibition of human HOP62 cells incubated for 48 hrs by sulforhodamine B assay; details: HOP-62, 48 h
[3] = Growth inhibition of human HOP92 cells incubated for 48 hrs by sulforhodamine B assay; details: HOP-92, 48 h
[4] = Growth inhibition of human COLO205 cells incubated for 48 hrs by sulforhodamine B assay; details: COLO 205, 48 h
KM12 [5] = test: Growth inhibition of human KM12 cells incubated for 48 hrs by sulforhodamine B assay; details: KM12, 48 h
[6] = Growth inhibition of human SF539 cells incubated for 48 hrs by sulforhodamine B assay; details: SF-539, 48 h
[7] = Growth inhibition of human SNB75 cells incubated for 48 hrs by sulforhodamine B assay; details: SNB-75, 48 h
[8] = Growth inhibition of human UACC257 cells incubated for 48 hrs by sulforhodamine B assay; details: UACC-257, 48 h
[9] = Growth inhibition of human OVCAR5 cells incubated for 48 hrs by sulforhodamine B assay; details: OVCAR-5, 48 h
[10] = Growth inhibition of human NCI-ADR-RES cells incubated for 48 hrs by sulforhodamine B assay
A498 = test: Growth inhibition of human A498 cells incubated for 48 hrs by sulforhodamine B assay; details: A498, 48 h
SN12C [11] = test: Growth inhibition of human SN12C cells incubated for 48 hrs by sulforhodamine B assay
[12] = Growth inhibition of human PC3 cells incubated for 48 hrs by sulforhodamine B assay; details: PC-3, 48 h
[13] = Growth inhibition of human DU145 cells incubated for 48 hrs by sulforhodamine B assay; details: DU-145, 48 h
MDA-MB-231 = test: Growth inhibition of human MDA-MB-231 cells incubated for 48 hrs by sulforhodamine B assay; details: MDA-MB-231, 48 h
[14] = Growth inhibition of human prostate cancer cells after 48 hrs by sulforhodamine B assay; details: Cancer cell lines
[15] = Cytotoxicity against human RPMI8226 cells assessed as cell growth at 10 uM incubated for 48 hrs by sulforhodamine B assay; details: RPMI-8226, 48 h, read-out: Activity
SR = test: Cytotoxicity against human SR cells assessed as cell growth at 10 uM incubated for 48 hrs by sulforhodamine B assay; details: read-out: Activity
MDA-MB-468 = test: Cytotoxicity against human MDA-MB-468 cells assessed as cell growth at 10 uM incubated for 48 hrs by sulforhodamine B assay; details: MDA-MB-468, 48 h, read-out: Activity
[16] = Cytotoxicity against human MOLT4 cells assessed as cell growth at 10 uM incubated for 48 hrs by sulforhodamine B assay; details: MOLT-4, 48 h, read-out: Activity
[17] = Cytotoxicity against human HL-60(TB) cells assessed as cell growth at 10 uM incubated for 48 hrs by sulforhodamine B assay; details: HL-60, 48 h, read-out: Activity
EKVX = test: Cytotoxicity against human EKVX cells assessed as cell growth at 10 uM incubated for 48 hrs by sulforhodamine B assay; details: read-out: Activity
[18] = Cytotoxicity against human HOP92 cells assessed as cell growth at 10 uM incubated for 48 hrs by sulforhodamine B assay; details: HOP-92, 48 h, read-out: Activity
[19] = Cytotoxicity against human HCT116 cells assessed as cell growth at 10 uM incubated for 48 hrs by sulforhodamine B assay; details: HCT-116, 48 h, read-out: Activity
[20] = Cytotoxicity against human HCT15 cells assessed as cell growth at 10 uM incubated for 48 hrs by sulforhodamine B assay; details: HCT-15, 48 h, read-out: Activity
KM12 [21] = test: Cytotoxicity against human KM12 cells assessed as cell growth at 10 uM incubated for 48 hrs by sulforhodamine B assay; details: KM12, 48 h, read-out: Activity
Malme-3M = test: Cytotoxicity against human MALME-3M cells assessed as cell growth at 10 uM incubated for 48 hrs by sulforhodamine B assay; details: read-out: Activity
ACHN = test: Cytotoxicity against human ACHN cells assessed as cell growth at 10 uM incubated for 48 hrs by sulforhodamine B assay; details: read-out: Activity
SN12C [22] = test: Cytotoxicity against human SN12C cells assessed as cell growth at 10 uM incubated for 48 hrs by sulforhodamine B assay; details: read-out: Activity
[23] = Cytotoxicity against human RXF393 cells assessed as cell growth at 10 uM incubated for 48 hrs by sulforhodamine B assay; details: RXF 393, 48 h, read-out: Activity
T47D = test: Cytotoxicity against human T47D cells assessed as cell growth at 10 uM incubated for 48 hrs by sulforhodamine B assay; details: read-out: Activity
[24] = Cytotoxicity against human TK10 cells assessed as cell growth at 10 uM incubated for 48 hrs by sulforhodamine B assay; details: TK-10, 48 h, read-out: Activity
[25] = Cytotoxicity against human UACC257 cells assessed as cell growth at 10 uM incubated for 48 hrs by sulforhodamine B assay; details: UACC-257, 48 h, read-out: Activity
[26] = Cytotoxicity against human OVCAR3 cells assessed as cell growth at 10 uM incubated for 48 hrs by sulforhodamine B assay; details: OVCAR-3, 48 h, read-out: Activity
[27] = Cytotoxicity against human SKOV3 cells assessed as cell growth at 10 uM incubated for 48 hrs by sulforhodamine B assay; details: SK-OV-3, 48 h, read-out: Activity
[28] = read-out: LC50 (the source's name)

Question: What does the source list for `Cc1cc(=O)oc2c(C)c(O)c(-c3cc4ccc(F)cc4[nH]3)cc12`?
Answer: GI50 [1]: 1.9 µM; TGI [1]: 6.19 µM; CC50 [1, 28]: > 100 µM; GI50 [2]: 2.98 µM; TGI [2]: 15.9 µM; CC50 [2, 28]: 45.4 µM; GI50 [3]: 0.95 µM; TGI [3]: 4.17 µM; CC50 [3, 28]: 29.9 µM; GI50 [4]: 11.7 µM; TGI [4]: 25.6 µM; CC50 [4, 28]: 56 µM; GI50 (KM12 [5]): 3.03 µM; TGI (KM12 [5]): 12.4 µM; CC50 (KM12 [5]; [28]): 42 µM; GI50 [6]: 2.94 µM; TGI [6]: 14.1 µM; CC50 [6, 28]: 59.4 µM; GI50 [7]: 5.7 µM; TGI [7]: 24 µM; CC50 [7, 28]: 78.3 µM; GI50 [8]: 1.82 µM; TGI [8]: 3.78 µM; CC50 [8, 28]: 7.87 µM; GI50 [9]: 3.34 µM; TGI [9]: 16.7 µM; CC50 [9, 28]: 49.7 µM; GI50 [10]: 2.82 µM; TGI [10]: 12.7 µM; CC50 [10, 28]: > 100 µM; GI50 (A498): 1.93 µM; TGI (A498): 6.21 µM; CC50 (A498; [28]): 25.8 µM; GI50 (SN12C [11]): 3.32 µM; TGI (SN12C [11]): 13 µM; CC50 (SN12C [11]; [28]): 48 µM; GI50 [12]: 2.64 µM; TGI [12]: 10 µM; CC50 [12, 28]: > 100 µM; GI50 [13]: 3.53 µM; TGI [13]: 18.4 µM; CC50 [13, 28]: > 100 µM; GI50 (MDA-MB-231): 2.49 µM; TGI (MDA-MB-231): 10.2 µM; CC50 (MDA-MB-231; [28]): > 100 µM; GI50 [14]: 3.09 µM; TGI [14]: 14.2 µM; CC50 [14, 28]: > 100 µM; growth at 10 µM [15]: 8.76%; growth at 10 µM (SR): 28.4%; growth at 10 µM (MDA-MB-468): 16.7%; growth at 10 µM [16]: 36.5%; growth at 10 µM [17]: 27.9%; growth at 10 µM (EKVX): 53.3%; growth at 10 µM [18]: -9.31%; growth at 10 µM [19]: 22.9%; growth at 10 µM [20]: 31.9%; growth at 10 µM (KM12 [21]): 33.2%; growth at 10 µM (Malme-3M): 31.9%; growth at 10 µM (ACHN): 27.6%; growth at 10 µM (SN12C [22]): 35.1%; growth at 10 µM [23]: 64.4%; growth at 10 µM (T47D): 27.2%; growth at 10 µM [24]: 59.9%; growth at 10 µM [25]: 30.4%; growth at 10 µM [26]: 16.5%; growth at 10 µM [27]: 47.1%
